Source: patent US8440708B2, “Triazole-substituted arylamides as P2X3 and P2X2/3 antagonists” (Roche Palo Alto LLC, priority 2007, dated 2013)

Columns and labels:
rat P2X3 receptor = molecular target: T1, rat P2X3 receptor (Rattus norvegicus, UniProt P49654); assay: P2X3/P2X2/3 FLIPR (Fluorometric Imaging Plate Reader) Assay, P2X3; type: cell-based; conditions: CHO-K1 cells transfected with rat P2X3; agonist α,β-meATP 1 μM; Table 1; read-out: P2X3 pKi (converted)
T1 construct: expressed in transfected cells; host or cells: CHO-K1
T1 sequence (P49654 1-397): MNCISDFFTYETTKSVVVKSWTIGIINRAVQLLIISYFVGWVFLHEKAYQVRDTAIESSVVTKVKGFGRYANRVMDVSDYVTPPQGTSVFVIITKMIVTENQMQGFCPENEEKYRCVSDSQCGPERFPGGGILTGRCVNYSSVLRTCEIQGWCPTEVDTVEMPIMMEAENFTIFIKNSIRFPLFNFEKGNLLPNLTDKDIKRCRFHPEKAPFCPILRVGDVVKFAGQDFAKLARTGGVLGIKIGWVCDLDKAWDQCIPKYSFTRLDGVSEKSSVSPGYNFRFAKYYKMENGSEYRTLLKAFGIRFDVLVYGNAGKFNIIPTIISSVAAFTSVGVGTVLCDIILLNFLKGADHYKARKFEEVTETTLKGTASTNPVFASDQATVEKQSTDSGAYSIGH
How it was run: (§1)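 Transfected CHO-K1 (rat P2X3; human P2X2/3), Fluo-3 AM 2 μM 1 h 37 °C, buffer HBSS/10 mM HEPES/2 mM CaCl2/2.5 mM probenecid. Cpd 20 min RT, then α,β-meATP 1 μM (P2X3) / 5 μM (P2X2/3). Peak Ca2+ signal, nonlinear regression.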

human P2X2/3 receptor = molecular target: T2, human P2X2/3 receptor (Homo sapiens, UniProt P56373+Q9UBL9); assay: P2X3/P2X2/3 FLIPR (Fluorometric Imaging Plate Reader) Assay, P2X2/3; type: cell-based; conditions: CHO-K1 cells transfected with human P2X2/3; agonist α,β-meATP 5 μM; Table 1; read-out: P2X2/3 pKi (converted)
T2 construct: expressed in transfected cells; host or cells: CHO-K1
T2 sequence (Q9UBL9 1-471): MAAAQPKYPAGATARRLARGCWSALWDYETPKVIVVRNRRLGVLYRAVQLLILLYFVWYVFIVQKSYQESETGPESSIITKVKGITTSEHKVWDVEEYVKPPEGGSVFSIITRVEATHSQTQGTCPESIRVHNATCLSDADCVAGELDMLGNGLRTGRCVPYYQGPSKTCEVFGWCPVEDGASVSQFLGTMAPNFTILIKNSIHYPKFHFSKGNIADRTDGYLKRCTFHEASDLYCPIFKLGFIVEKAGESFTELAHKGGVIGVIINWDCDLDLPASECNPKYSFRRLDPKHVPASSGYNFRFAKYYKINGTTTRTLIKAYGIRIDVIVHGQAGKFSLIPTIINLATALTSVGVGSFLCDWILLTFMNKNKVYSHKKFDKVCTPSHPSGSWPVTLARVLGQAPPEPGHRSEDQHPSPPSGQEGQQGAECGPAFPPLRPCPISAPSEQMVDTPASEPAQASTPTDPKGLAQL
T2 sequence (P56373 1-397): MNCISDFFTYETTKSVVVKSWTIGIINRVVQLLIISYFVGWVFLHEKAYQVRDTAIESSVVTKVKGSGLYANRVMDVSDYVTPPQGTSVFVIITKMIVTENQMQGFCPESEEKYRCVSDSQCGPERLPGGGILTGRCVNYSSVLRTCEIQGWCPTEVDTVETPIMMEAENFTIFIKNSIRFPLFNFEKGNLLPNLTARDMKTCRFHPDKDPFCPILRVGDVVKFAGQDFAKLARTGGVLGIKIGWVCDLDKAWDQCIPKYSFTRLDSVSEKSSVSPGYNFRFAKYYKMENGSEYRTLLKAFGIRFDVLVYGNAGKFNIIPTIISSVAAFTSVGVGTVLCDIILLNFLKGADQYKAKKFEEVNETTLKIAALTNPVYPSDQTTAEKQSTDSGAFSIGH
How it was run: as §1

| Ki (rat P2X3 receptor) [nM] | Ki (human P2X2/3 receptor) [nM] | Compound |
| --- | --- | --- |
| 18.2 | 4900 | CCCc1ncnn1-c1cc(C(=O)N[C@@H](C)CO)cc(-c2ccc(Cl)cn2)c1 [Compound 111, 3-(5-Chloro-pyridin-2-yl)-N-((S)-2-hydroxy-1-methyl-ethyl)-5-(5-propyl-[1,2,4]triazol-1-yl)-benzamide] |
| 10.2 | 1860 | CCCc1ncnn1-c1cc(C(=O)NC2CC2)cc(-c2ccc(Cl)cn2)c1 [Compound 112, 3-(5-Chloro-pyridin-2-yl)-N-cyclopropyl-5-(5-propyl-[1,2,4]triazol-1-yl)-benzamide] |
| 4.57 | 1580 | CCCc1ncnn1-c1cc(C(=O)NC2CC2)cc(-c2ccc(C)cn2)c1 [Compound 113, N-Cyclopropyl-3-(5-methyl-pyridin-2-yl)-5-(5-propyl-[1,2,4]triazol-1-yl)-benzamide] |
| 4.79 | 2880 | CCCc1ncnn1-c1cc(C(=O)N[C@@H](C)CO)cc(-c2ccc(C)cn2)c1 [Compound 114, N-((S)-2-Hydroxy-1-methyl-ethyl)-3-(5-methyl-pyridin-2-yl)-5-(5-propyl-[1,2,4]triazol-1-yl)-benzamide] |
| 3.31 | 79.4 | CCCc1ncnn1-c1cc(C(=O)NC(C)c2cnccn2)cc(-c2ccc(C)cn2)c1 (stereo not drawn) [Compound 115, 3-(5-Methyl-pyridin-2-yl)-5-(5-propyl-[1,2,4]triazol-1-yl)-N-(1-pyrazin-2-yl-ethyl)-benzamide] |
| 2.51 | 85.1 | CCCc1ncnn1-c1cc(C(=O)NCc2cnc(C)cn2)cc(-c2ccc(C)cn2)c1 [Compound 116, N-(5-Methyl-pyrazin-2-ylmethyl)-3-(5-methyl-pyridin-2-yl)-5-(5-propyl-[1,2,4]triazol-1-yl)-benzamide] |
| 11.5 | 398 | Cc1ccc(-c2cc(C(=O)NCc3cnc(C)cn3)cc(-c3ncn(C(C)C)n3)c2)cc1 [Compound 117, 5-(1-Isopropyl-1H-[1,2,4]triazol-3-yl)-4′-methyl-biphenyl-3-carboxylic acid (5-methyl-pyrazin-2-ylmethyl)-amide] |
| 4.27 | 35.5 | Cc1ccc(-c2cc(C(=O)NC(C)c3cnccn3)cc(-n3ncnc3CC(C)C)c2)nc1 (stereo not drawn) [Compound 118, 3-(5-Isobutyl-[1,2,4]triazol-1-yl)-5-(5-methyl-pyridin-2-yl)-N-(1-pyrazin-2-yl-ethyl)-benzamide] |
| 3.55 | 23.4 | Cc1ccc(-c2cc(C(=O)NCc3cnc(C)cn3)cc(-n3ncnc3CC(C)C)c2)nc1 [Compound 119, 3-(5-Isobutyl-[1,2,4]triazol-1-yl)-N-(5-methyl-pyrazin-2-ylmethyl)-5-(5-methyl-pyridin-2-yl)-benzamide] |
| 7.59 | 132 | CC(C)c1ncnn1-c1cc(C(=O)NC(C)c2cnccn2)cc(-c2ccc(Cl)cn2)c1 (stereo not drawn) [Compound 120, 3-(5-Chloro-pyridin-2-yl)-5-(5-isopropyl-[1,2,4]triazol-1-yl)-N-(1-pyrazin-2-yl-ethyl)-benzamide] |
| 5.89 | 107 | Cc1cnc(CNC(=O)c2cc(-c3ccc(Cl)cn3)cc(-n3ncnc3C(C)C)c2)cn1 [Compound 121, 3-(5-Chloro-pyridin-2-yl)-5-(5-isopropyl-[1,2,4]triazol-1-yl)-N-(5-methyl-pyrazin-2-ylmethyl)-benzamide] |
| 19.1 | 1290 | CC(C)c1ncnn1-c1cc(C(=O)N[C@@H](C)CO)cc(-c2ccc(Cl)cn2)c1 [Compound 122, 3-(5-Chloro-pyridin-2-yl)-N-((S)-2-hydroxy-1-methyl-ethyl)-5-(5-isopropyl-[1,2,4]triazol-1-yl)-benzamide] |
| 11 | 871 | CC(C)c1ncnn1-c1cc(C(=O)NC2CC2)cc(-c2ccc(Cl)cn2)c1 [Compound 123, 3-(5-Chloro-pyridin-2-yl)-N-cyclopropyl-5-(5-isopropyl-[1,2,4]triazol-1-yl)-benzamide] |
| 13.5 | 1150 | CCc1ncnn1-c1cc(C(=O)NCc2cnc(C)cn2)cc(-c2ccc(Cl)cn2)c1 [Compound 124, 3-(5-Chloro-pyridin-2-yl)-5-(5-ethyl-[1,2,4]triazol-1-yl)-N-(5-methyl-pyrazin-2-ylmethyl)-benzamide] |
| 19.1 | 245 | Cc1ccc(-c2cc(C(=O)NCc3cnc(C)cn3)cc(-n3ncnc3C3CC3)c2)nc1 [Compound 125, 3-(5-Cyclopropyl-[1,2,4]triazol-1-yl)-N-(5-methyl-pyrazin-2-ylmethyl)-5-(5-methyl-pyridin-2-yl)-benzamide] |
| 29.5 | 3720 | CCc1ncnn1-c1cc(C(=O)NC2CC2)cc(-c2ccc(C)cn2)c1 [Compound 126, N-Cyclopropyl-3-(5-ethyl-[1,2,4]triazol-1-yl)-5-(5-methyl-pyridin-2-yl)-benzamide] |
| 24.5 | 6920 | CCc1ncnn1-c1cc(C(=O)N[C@@H](C)CO)cc(-c2ccc(C)cn2)c1 [Compound 127, 3-(5-Ethyl-[1,2,4]triazol-1-yl)-N-((S)-2-hydroxy-1-methyl-ethyl)-5-(5-methyl-pyridin-2-yl)-benzamide] |
| 10.2 | 257 | CCc1ncnn1-c1cc(C(=O)NC(C)c2cnccn2)cc(-c2ccc(C)cn2)c1 (stereo not drawn) [Compound 128, 3-(5-Ethyl-[1,2,4]triazol-1-yl)-5-(5-methyl-pyridin-2-yl)-N-(1-pyrazin-2-yl-ethyl)-benzamide] |
| 4.9 | 79.4 | CCc1ncnn1-c1cc(C(=O)NCc2cnc(C)cn2)cc(-c2ccc(C)cn2)c1 [Compound 129, 3-(5-Ethyl-[1,2,4]triazol-1-yl)-N-(5-methyl-pyrazin-2-ylmethyl)-5-(5-methyl-pyridin-2-yl)-benzamide] |
| 4.27 | 182 | Cc1ccc(-c2cc(C(=O)NC3CC3)cc(-n3ncnc3CC(C)C)c2)nc1 [Compound 130, N-Cyclopropyl-3-(5-isobutyl-[1,2,4]triazol-1-yl)-5-(5-methyl-pyridin-2-yl)-benzamide] |
| 3.72 | 158 | Cc1ccc(-c2cc(C(=O)N[C@@H](C)CO)cc(-n3ncnc3CC(C)C)c2)nc1 [Compound 131, N-((S)-2-Hydroxy-1-methyl-ethyl)-3-(5-isobutyl-[1,2,4]triazol-1-yl)-5-(5-methyl-pyridin-2-yl)-benzamide] |
| 3.31 | 38.9 | Cc1ccc(-c2cc(C(=O)NCc3cnc(C)cn3)cc(-n3ncnc3C(C)C)c2)nc1 [Compound 132, 3-(5-Isopropyl-[1,2,4]triazol-1-yl)-N-(5-methyl-pyrazin-2-ylmethyl)-5-(5-methyl-pyridin-2-yl)-benzamide] |
| 11 | 295 | COC(C)c1ncnn1-c1cc(C(=O)NCc2cnc(C)cn2)cc(-c2ccc(C)cn2)c1 (stereo not drawn) [Compound 133, 3-[5-(1-Methoxy-ethyl)-[1,2,4]triazol-1-yl]-N-(5-methyl-pyrazin-2-ylmethyl)-5-(5-methyl-pyridin-2-yl)-benzamide] |
| 6.61 | 38 | COC(C)c1ncnn1-c1cc(C(=O)NCc2cnc(C)cn2)cc(-c2ccc(C)cc2)c1 (stereo not drawn) [Compound 134, 5-[5-(1-Methoxy-ethyl)-[1,2,4]triazol-1-yl]-4′-methyl-biphenyl-3-carboxylic acid (5-methyl-pyrazin-2-ylmethyl)-amide] |
